Experimental findings from article PMC7663979, “Design of Novel 4-Aminobenzofuroxans and Evaluation of Their Antimicrobial and Anticancer Activity” (International Journal of Molecular Sciences, 2020) are described below.

Some results are limits rather than exact numbers.

One test deals with MCF7. Put plainly: Cytotoxicity assay (Cytell Cell Viability BioApp), MCF7. The test is classed as cell-based, human. As to conditions: for IC50: Homo sapiens, MCF7, mean ± SD, three experiments; for SI MCF7: selectivity index = IC50 normal cells (Chang liver) / IC50 cancer cells, n.s. = no selectivity.
Another test relates to M-HeLa. Put plainly: Cytotoxicity assay (Cytell Cell Viability BioApp), M-HeLa. In kind it is cell-based, human. The settings on record: for IC50: Homo sapiens, M-HeLa, mean ± SD, three experiments; for SI M-HeLa: selectivity index = IC50 normal cells (Chang liver) / IC50 cancer cells, n.s. = no selectivity.
A further test relates to PANC-1. Put plainly: Cytotoxicity assay (Cytell Cell Viability BioApp), PANC-1. The test is classed as cell-based, human. The settings on record: for IC50: Homo sapiens, PANC-1, mean ± SD, three experiments; for SI PANC-1: selectivity index = IC50 normal cells (Chang liver) / IC50 cancer cells, n.s. = no selectivity.
The subject of another test is Chang Liver. Put plainly: Cytotoxicity assay (Cytell Cell Viability BioApp), normal Chang liver cells. In kind it is cell-based. The settings on record: Homo sapiens, mean ± SD, three experiments, read-out: IC50 Chang Liver (normal cell line).
Test [1] concerns Microdochium nivale isolate 21. Put plainly: Fungistatic activity, agar growth medium poison technique, isolate 21. In kind it is cell-based. As to conditions: 1 mM in PSA; for inhibition at 1000 µM: Microdochium nivale. Here is the method: (§1) Fungistatic activity of the tested compounds was assessed in vitro using agar growth medium poison technique. The target compounds as well as widely used fungicides benzimidazole and carbendazim were dissolved to 10 mM concentration in 20% Tween 20. The obtained solutions were added 1:9 v/v (giving 1 mM-concentrations of the target compounds) to potato-sucrose agar (PSA) at 60 °C, mixed thoroughly and transferred to Petri dishes. For the control variants, PSA was supplemented with 20% Tween 20 (9:1). Fungistatic effect was tested against two isolates of Microdochium nivale causing snow mold disease of winter cereals (rye) from the culture collection of FRC Kazan Scientific Center of RAS. […] The center of each solidified medium was inoculated upside-down with 5-mm diameter mycelial plug cut from the periphery of 10-day-old cultures. The tested dishes were incubated at 20 °C. The percentage growth inhibition was calculated using Abbott’s formula (1):%Inhibition = [(A − B) ÷ A] × 100(1) where ‘A’ is mycelia growth in the control conditions and ‘B’ is mycelia growth in the treatment conditions. The assay was performed at least in triplicate. Linear growth of each colony was determined during 6 days.

In test [2] the test system is Microdochium nivale isolate 1. Put plainly: Fungistatic activity, agar growth medium poison technique, isolate 1. The test is classed as cell-based. As to conditions: 1 mM in PSA; for inhibition at 1000 µM: Microdochium nivale; for inhibition at 1000 µM / growth inhibition: 20 °C. Here is the method:
as §1

The next test relates to T98G. Put plainly: cells. The test is classed as cell-based, human. The settings on record: for IC50: Homo sapiens, T98G, read-out: IC50 T98G; for SI T98G: selectivity index = IC50 normal cells (Chang liver) / IC50 cancer cells, n.s. = no selectivity.

As for `COc1ccccc1Nc1c([N+](=O)[O-])c(Cl)cc2c1no[n+]2[O-]` [Compound 3e, 6-chloro-4-((2-methoxyphenyl)amino)-5-nitrobenzofuroxan], the IC50 (as a rule, the concentration needed to halve the response being measured) with MCF7 was determined as 79.5 ± 6.4 µM; in the test with M-HeLa, 62.7 ± 5.4 µM; in the test on PANC-1 it was 50 ± 4.1 µM; with Chang Liver it was 62.7 ± 5.6 µM; in the test on T98G, 21.5 ± 1.8 µM. For the same compound, the “SI MCF7” value with MCF7 is on record as “n.s”. Moreover, the “SI M-HeLa” value in the test with M-HeLa is recorded as 1.0. For the same compound, the “SI PANC-1” value in the test with PANC-1 was 1.3. In addition, the “fungistatic activity (result in words)” value is given as “one of the most pronounced inhibitory effects” in test [1] and “inefficient” in test [2]. In addition, the “SI T98G” value in the test on T98G was 3.0.

For the compound `CCCCNc1c([N+](=O)[O-])c(Cl)cc2c1no[n+]2[O-]` [Compound 5a, 4-(butylamino)-6-chloro-5-nitrobenzofuroxan], in the test with MCF7, the IC50 is over 100 µM and the “SI MCF7” value is given as “n.s”. For the same compound, in the test with M-HeLa, the midpoint of inhibition, the IC50, lay at 56.5 ± 4.5 µM and the “SI M-HeLa” value is given as 1.8. In addition, in the test with PANC-1, the IC50 was over 100 µM and the “SI PANC-1” value was “n.s”. Moreover, in the test with Chang Liver, the IC50 amounted to 100 µM. Besides, the growth inhibition entry in test [1] (sixth day of incubation, 20 °C) is “did not cause any inhibition”. Besides, in test [1] (fifth day of incubation, 20 °C), the inhibition (usually the relative decrease from the control value, in per cent) at 1000 µM was 10%. The “fungistatic activity (result in words)” value in test [2] is recorded as “one of the most effective”. Also, in the test on T98G, the IC50 is 22.7 ± 1.9 µM and the “SI T98G” value is listed as 4.4.

With `O=[N+]([O-])c1c(Cl)cc2c(no[n+]2[O-])c1Nc1ccc(F)cc1` [Compound 3a, 6-chloro-4-((4-fluorophenyl)amino)-5-nitrobenzofuroxan], in the test with MCF7, the IC50 is over 100 µM and the “SI MCF7” value is “n.s”. Besides, in the test on M-HeLa, the IC50 is 45.9 ± 3.7 µM and the “SI M-HeLa” value is 2.0. Further, in the test with PANC-1, the IC50 is over 100 µM and the “SI PANC-1” value is listed as “n.s”. Besides, in the test with Chang Liver, the IC50 is 93.8 ± 8.3 µM. For the same compound, in the test on T98G, the IC50 was found to be 28.3 ± 2.3 µM and the “SI T98G” value came to 3.3.

Take `O=[N+]([O-])c1c(Cl)cc2c(no[n+]2[O-])c1NC1CCCCC1` [Compound 5d, 6-chloro-4-(cyclohexylamino)-5-nitrobenzofuroxan]: in the test on MCF7, the IC50 came out at 79.1 ± 6.2 µM and the “SI MCF7” value was “n.s”. Besides, in the test on M-HeLa, the IC50 amounted to 61 ± 5.2 µM and the “SI M-HeLa” value is given as 1.1. Besides, in the test with PANC-1, the IC50 is over 100 µM and the “SI PANC-1” value is given as “n.s”. Moreover, the IC50 with Chang Liver is 67.1 ± 5.7 µM. In addition, in the test with T98G, the IC50 amounted to 31.6 ± 2.5 µM and the “SI T98G” value was determined as 2.1.

In the case of `CCCCCCNc1c([N+](=O)[O-])c(Cl)cc2c1no[n+]2[O-]` [Compound 5b, 6-chloro-4-(hexylamino)-5-nitrobenzofuroxan], in the test on MCF7, the IC50 was over 100 µM and the “SI MCF7” value is reported as “n.s”. Also, in the test with M-HeLa, the 50% inhibitory concentration (IC50) is 60.8 ± 4.8 µM and the “SI M-HeLa” value is given as over 1.6. Besides, in the test with PANC-1, 50 ± 3.9 µM corresponded to half-maximal inhibition (IC50) and the “SI PANC-1” value was over 2. Further, the IC50 in the test on Chang Liver is over 100 µM. Further, in the test on T98G, the IC50 was 65 ± 5.8 µM and the “SI T98G” value was over 1.5.

For the compound `N#Cc1ccc(Nc2c([N+](=O)[O-])c(Cl)cc3c2no[n+]3[O-])cc1` [Compound 3d, 6-chloro-4-((4-cyanophenyl)amino)-5-nitrobenzofuroxan], the IC50 is 67.9 ± 5.7 µM with MCF7; 16.6 ± 1.4 µM in the test with M-HeLa; 61.3 ± 5.1 µM in the test on PANC-1; over 100 µM in the test on Chang Liver; 14.7 ± 1.2 µM with T98G. Also, the “SI MCF7” value in the test with MCF7 is listed as over 1.5. For the same compound, the “SI M-HeLa” value in the test with M-HeLa is listed as over 6. In addition, the “SI PANC-1” value with PANC-1 is listed as over 1.6. In addition, in the test with T98G, the “SI T98G” value is over 6.8.

In the case of `O=[N+]([O-])c1c(Cl)cc2c(no[n+]2[O-])c1Nc1ccc(Cl)cc1` [Compound 3b, 6-chloro-4-((4-chlorophenyl)amino)-5-nitrobenzofuroxan], the IC50 worked out at 69.2 ± 5.7 µM with MCF7; 60.6 ± 4.7 µM in the test with M-HeLa; 82.7 ± 7.3 µM in the test with PANC-1; 62.7 ± 5.5 µM with Chang Liver; 12.7 ± 1.1 µM in the test on T98G. Moreover, in the test with MCF7, the “SI MCF7” value is “n.s”. In addition, the “SI M-HeLa” value in the test with M-HeLa is 1.0. Further, the “SI PANC-1” value with PANC-1 is listed as “n.s”. Further, the inhibition at 1000 µM in test [1] (fifth day of incubation, 20 °C) was over 40%; in test [1] (sixth day of incubation, 20 °C), over 25%; in test [2] (fifth day of incubation), over 40%; in test [2] (sixth day of incubation), over 25%. Also, the “SI T98G” value with T98G amounted to 5.0.

Turning to `CN(Cc1ccccc1)c1c([N+](=O)[O-])c(Cl)cc2c1no[n+]2[O-]` [Compound 5f, 4-(benzyl(methyl)amino)-6-chloro-5-nitrobenzofuroxan], the IC50 in the test with MCF7 is over 100 µM; in the test on M-HeLa, 62.2 ± 5.6 µM; in the test with PANC-1, over 100 µM; with Chang Liver it was over 100 µM; with T98G, over 100 µM. The “SI MCF7” value in the test on MCF7 is on record as “n.s”. For the same compound, the “SI M-HeLa” value in the test on M-HeLa is over 1.6. Moreover, the “SI PANC-1” value with PANC-1 is reported as “n.s”. The inhibition at 1000 µM in test [1] (fifth day of incubation, 20 °C) was under 20%; in test [1] (sixth day of incubation, 20 °C), under 10%; in test [2] (fifth day of incubation), under 20%; in test [2] (sixth day of incubation) it was under 10%. Also, the “SI T98G” value with T98G is “n.s”.

For the compound `COc1cccc2c1C(=O)c1c(O)c3c(c(O)c1C2=O)C[C@@](O)(C(=O)CO)C[C@@H]3O[C@H]1C[C@H](N)[C@H](O)[C@H](C)O1` [Doxorubicin, reference compound], the IC50 with MCF7 is 3 ± 0.2 µM; in the test with M-HeLa, 3 ± 0.1 µM; in the test with PANC-1, 3.3 ± 0.1 µM; in the test on Chang Liver, 3 ± 0.2 µM; in the test on T98G, 6.8 ± 0.5 µM. Moreover, the “SI MCF7” value with MCF7 is listed as 1.0. The “SI M-HeLa” value with M-HeLa was found to be 1.0. In addition, the “SI PANC-1” value in the test on PANC-1 worked out at 1.0. In addition, the “SI T98G” value in the test with T98G is recorded as “n.s”.

`COC(=O)Nc1nc2ccccc2[nH]1` [carbendazim, methyl-2-benzimidazole carbamate, reference compound] yielded an inhibition at 1000 µM in test [1] (sixth day of incubation, 20 °C) of 100%. In addition, the growth inhibition entry in test [2] (fifth day of incubation) was “null inhibitory effect”.

In the case of `O=[N+]([O-])c1c(Cl)cc2c(no[n+]2[O-])c1Cl` [4,6-dichloro-5-nitrobenzofuroxan, reference compound], the “fungistatic activity (result in words)” value in test [1] and in test [2] was “not effective” in each case.

For `c1ccc2[nH]cnc2c1` [benzimidazole, reference compound], the growth inhibition result in test [2] (fifth day of incubation) was “null inhibitory effect”.

As for `O=[N+]([O-])c1c(Cl)cc2c(no[n+]2[O-])c1NN1CCOCC1` [Compound 5e, 6-chloro-4-(morpholinoamino)-5-nitrobenzofuroxan], the IC50 in the test with MCF7 is over 100 µM; with M-HeLa, 61.6 ± 5.2 µM; in the test on PANC-1, over 100 µM; with Chang Liver it was 65.2 ± 5.8 µM; in the test on T98G, 57.1 ± 4.3 µM. The “SI MCF7” value in the test on MCF7 is “n.s”. Moreover, in the test on M-HeLa, the “SI M-HeLa” value stood at 1.1. In addition, the “SI PANC-1” value with PANC-1 is “n.s”. For the same compound, in the test with T98G, the “SI T98G” value was determined as 1.1.
